The source made the active and inactive calls.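 Rule for the calls: active = a tumour-causing dose and a tumour site recorded for mice in at least one sex group; inconclusive = only government mouse studies exist and were judged inadequate; inactive = mouse studies exist but none gave tumours.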

This data set has as its system mouse carcinogenicity bioassay, TD50 from CPDB. The data set can be described thus: DSSTox (CPDBAS) Carcinogenic Potency Database Summary Mouse Bioassay Results. A digest of the protocol: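 Values are TD50 carcinogenic potencies from mouse chronic bioassays, taking the most positive result for each sex-species. Sources are published literature and NCI/NTP studies; target sites reflect author-reported positive findings.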

The mark [1] stands for this setting: TD50_Mouse_Note: TD50 is harmonic mean of more than one positive test, TargetSites_Mouse_Female: liver.
The mark [2] stands for this setting: TD50_Mouse_Note: no positive results, TargetSites_Mouse_Female: no positive results.
[3] abbreviates: TargetSites_Mouse_Female: no positive results.
Setting [4] is: TD50_Mouse_Note: no positive results.
Setting [5] is: TD50_Mouse_Note: TD50 is harmonic mean of more than one positive test, TargetSites_Mouse_Female: stomach.
The mark [6] stands for this setting: TD50_Mouse_Note: TD50 is harmonic mean of more than one positive test, TargetSites_Mouse_Female: liver, lung.

On to `Nc1nc(N)c2nc(-c3ccccc3)c(N)nc2n1`, for which, under setting [1], the Potency was 0.238 mmol/kg/day.
With `OCl`, the outcome under setting [2] is “inactive; no positive results”.
`Nc1ncc([N+](=O)[O-])s1`: the outcome under setting [2] was “inactive; no positive results”.
As for `[O]=[Mo](=[O])=[O]`, the Potency (TD50_Mouse_Note: TD50 is harmonic mean of more than one positive test, greater than ten-fold variation among TD50 values for positive res, TargetSites_Mouse_Female: lung) was 0.0426 mmol/kg/day.
`Nc1c(F)c(N)c(F)c(F)c1F`: the Potency under setting [3] is 0.341 mmol/kg/day.
For the compound `Nc1c(Br)cc(Br)c2c1C(=O)c1ccccc1C2=O`, the Potency (TD50_Mouse_Note: TD50 is harmonic mean of more than one positive test, TargetSites_Mouse_Female: liver, lung, stomach) was 1.25 mmol/kg/day.
Consider `C=CCc1ccc(OC)cc1`, for which the Potency (TargetSites_Mouse_Female: liver) is 0.35 mmol/kg/day.
In the case of `Cc1ccccc1N`, for the setting “TD50_Mouse_Note: TD50 is harmonic mean of more than one positive test, TargetSites_Mouse_Female: liver, vascular system”, the Potency was 5.85 mmol/kg/day.
Turning to `FC(F)OC(F)(F)C(F)Cl` (stereo not given), the outcome under setting [2] was “inactive; no positive results”.
As for `CCCCC(C)(O)C/C=C/[C@H]1[C@H](O)CC(=O)[C@@H]1CCCCCCC(=O)OC` (stereo not given in full), the outcome under setting [2] was “inactive; no positive results”.
As for `C[N+](C)(C)CCO`, under setting [4], the outcome is “inactive; no positive results”.
On to `C=Cc1ccc(C)cc1`, for which the outcome under setting [2] is “inactive; no positive results”.
As to `FC(F)Cl`, the outcome under setting [2] is “inactive; no positive results”.
As for `S=[Se]`, the Potency (TargetSites_Mouse_Female: liver, lung) was 0.624 mmol/kg/day.
Turning to `O=[N+]([O-])c1ccccc1`, the Potency (TD50_Mouse_Note: TD50 is harmonic mean of more than one positive test, TargetSites_Mouse_Female: liver, mammary gland) is 2.4 mmol/kg/day.
On to `Oc1cccc2cccnc12.Oc1cccc2cccnc12.[Cu]`, for which the outcome under setting [2] is “inactive; no positive results”.
As to `C/C=C/C=C/C=O`, the Potency under setting [5] was 1.83 mmol/kg/day.
For `NNC(=O)c1ccncc1`, the Potency (TD50_Mouse_Note: TD50 is harmonic mean of more than one positive test, greater than ten-fold variation among TD50 values for positive res, TargetSites_Mouse_Female: liver, lung, TargetSites_Mouse_BothSexes: mammary gland) is 0.198 mmol/kg/day.
As for `CN(N=O)c1ncnc2nc[nH]c12`, the Potency under setting [3] is 0.101 mmol/kg/day.
Still for that read-out and setting: the same measure for `O=CCCl`: 0.46 mmol/kg/day.
For the compound `O.O.O.O.O.O.O=S(=O)([O-])[O-].[Ni+2]`, the outcome under setting [2] is “inactive; no positive results”.
Regarding `O=C1C(Cl)=C(Cl)C(=O)C(Cl)=C1Cl`, the outcome under setting [2] was “inactive; no positive results”.
On the same count and under the same terms, the same measure for `Oc1ccccc1-c1ccccc1`: “inactive; no positive results”.
With `CCCCCC(N)=O`, under setting [3], the Potency is 16.9 mmol/kg/day.
As to `Cc1cc(N=Nc2ccccc2C)ccc1N`, the outcome under setting [4] is “inactive; no positive results”.
On to `FC(F)=C(F)F`, for which the Potency (TD50_Mouse_Note: TD50 is harmonic mean of more than one positive test, TargetSites_Mouse_Female: hematopoietic system, liver, vascular system) was 0.719 mmol/kg/day.
`O=c1c(CO)c/c(=N/Nc2ccc(S(=O)(=O)O)c3ccccc23)c(=O)/c1=N/Nc1ccc(S(=O)(=O)O)c2ccccc12`: the outcome under setting [2] is “inactive; no positive results”.
Still for that read-out and setting: the same measure for `CCC(C)c1cc([N+](=O)[O-])cc([N+](=O)[O-])c1O` (stereo not given): “inactive; no positive results”.
On to `Cc1ccc(C)c(N)c1`, for which the Potency under setting [1] is 3.97 mmol/kg/day.
As to `CC(=O)OC[C@H]1O[C@H](O[C@]2(COC(C)=O)O[C@H](COC(=O)C(C)C)[C@@H](OC(=O)C(C)C)[C@@H]2OC(=O)C(C)C)[C@H](OC(=O)C(C)C)[C@@H](OC(=O)C(C)C)[C@@H]1OC(=O)C(C)C`, the outcome under setting [2] is “inactive; no positive results”.
In the case of `[N-]=[N+]=O`, the outcome under setting [2] is “inactive; no positive results”.
The same measure, in the same setting: to `O=CCBr` belongs “inactive; no positive results”.
Consider `O=C(O)c1cc(N=Nc2ccc(S(=O)(=O)Nc3ccccn3)cc2)ccc1O`, for which the Potency under setting [1] is 3.14 mmol/kg/day.
Consider `Cc1c(N(C)CS(=O)(=O)O)c(=O)n(-c2ccccc2)n1C`, for which the Potency under setting [1] was 1.89 mmol/kg/day.
Turning to `Clc1ccc2c(c1)Oc1ccc(Cl)cc1O2`, the outcome under setting [2] was “inactive; no positive results”.
Still for that read-out and setting: the same measure for `Cc1cccc(C)c1`: “inactive; no positive results”; for `[Na+]`: “inactive; no positive results”.
Consider `Cc1nc(N)cc2[nH]c3ccccc3c12`, for which, under “TD50_Mouse_Note: TD50 is harmonic mean of more than one positive test, greater than ten-fold variation among TD50 values for positive res, TargetSites_Mouse_Female: liver”, the Potency is 0.049 mmol/kg/day.
`S=C(SSSSSSC(=S)N1CCCCC1)N1CCCCC1`: under setting [2], the outcome was “inactive; no positive results”.
As to `COP(=O)(OC)OC`, the Potency (TargetSites_Mouse_Female: uterus) is 2.39 mmol/kg/day.
Take `O=C(OOC(=O)c1ccccc1)c1ccccc1`: where the note is “TargetSites_Mouse_BothSexes: no positive results”, the outcome was inactive.
`NNC(N)=O`: the Potency (TD50_Mouse_Note: TD50 is harmonic mean of more than one positive test, TargetSites_Mouse_Female: lung, vascular system) is 2 mmol/kg/day.
Consider `CCOC(=O)CC(SP(=O)(OC)OC)C(=O)OCC` (stereo not given), for which, under setting [2], the outcome was “inactive; no positive results”.
As for `C=COC(N)=O`, the Potency (TD50_Mouse_Note: positive test results only by intraperitoneal or intravenous injection, TD50 is harmonic mean of more than one positive, TargetSites_Mouse_Female: liver, vascular system) is 0.00142 mmol/kg/day.
Turning to `Clc1cc2c(c(Cl)c1Cl)Oc1c(cc(Cl)c(Cl)c1Cl)O2`, under setting [1], the Potency is 3.66e-06 mmol/kg/day.
Regarding `O=C1OC(c2ccc(O)cc2)(c2ccc(O)cc2)c2ccccc21`, the Potency (TD50_Mouse_Note: TD50 is harmonic mean of more than one positive test, TargetSites_Mouse_Female: hematopoietic system, ovary) was 3.68 mmol/kg/day.
As for `CC(C)(C)O`, the Potency (TargetSites_Mouse_Female: thyroid gland) is 295 mmol/kg/day.
Turning to `O=[N+]([O-])c1cccc2ccccc12`, under setting [2], the outcome was “inactive; no positive results”.
Consider `CCCCC/C=N/N(C)C=O`, for which the Potency under setting [6] is 0.0149 mmol/kg/day.
With `Nc1nc(N)nc(-c2ccccc2)n1`, the outcome under setting [2] was “inactive; no positive results”.
Same read-out and setting: to `CC(=O)Nc1ccc(S(=O)(=O)O)c2cc(S(=O)(=O)O)c(N=Nc3ccc(N=Nc4ccc(S(=O)(=O)O)cc4)c4ccc(S(=O)(=O)O)cc34)c(O)c12` belongs “inactive; no positive results”; to `CC(C)NCC(O)c1ccc2ccccc2c1` (stereo not given), “inactive; no positive results”.
On to `Nc1ccc(O)c(N)c1`, for which, under setting [3], the Potency was 0.726 mmol/kg/day.
Regarding `Cc1cccc(OCC(O)CNC(C)(C)C)c1C` (stereo not given), the outcome under setting [2] was “inactive; no positive results”.
Same read-out and setting: to `CN(C)C(=S)SSC(=S)N(C)C` belongs “inactive; no positive results”.
On to `CC(C)CCCCCCOC(=O)c1ccccc1C(=O)OCCCCCCC(C)C`, for which the outcome (TD50_Mouse_Note: TD50 is harmonic mean of more than one positive test, TD50_Mouse_mmol was not calculated for this mixture, but Activiity, TargetSites_Mouse_Female: liver) is “active; liver”.
As to `O=C1CCCO1`, under setting [2], the outcome is “inactive; no positive results”.
`CC1=C[C@H]2[C@@]3(O)[C@H](C)[C@@H](O)[C@]4(O)[C@H]([C@@H]3C=C(CO)C[C@]2(O)C1=O)C4(C)C`: the Potency (TD50_Mouse_Note: positive test results only by intraperitoneal or intravenous injection, TargetSites_Mouse_Female: hematopoietic system) was 0.00606 mmol/kg/day.
For `O=Cc1ccccc1`, the Potency under setting [5] was 14 mmol/kg/day.
For `Nc1ccc(NCCO)c([N+](=O)[O-])c1`, the outcome (TD50_Mouse_Note: no positive results, TargetSites_Mouse_Female: NTP bioassay inadequate) is “inactive; no positive results”.
In the case of `O=C1c2ccccc2C(=O)N1SC(Cl)(Cl)Cl`, for the setting “TD50_Mouse_Note: TD50 is harmonic mean of more than one positive test, TargetSites_Mouse_Female: small intestine”, the Potency was 5.23 mmol/kg/day.
In the case of `CN(N)C=O`, the Potency (TD50_Mouse_Note: TD50 is harmonic mean of more than one positive test, greater than ten-fold variation among TD50 values for positive res, TargetSites_Mouse_Female: gall bladder, liver, lung, vascular system) was 0.0185 mmol/kg/day.
As to `Clc1ccc(C(c2ccc(Cl)cc2)C(Cl)Cl)cc1`, under “TD50_Mouse_Note: TD50 is harmonic mean of more than one positive test, TargetSites_Mouse_Female: lung”, the Potency was 0.0959 mmol/kg/day.
For the compound `CN(C)C(=S)[S][Bi]([S]C(=S)N(C)C)[S]C(=S)N(C)C`, the outcome under setting [2] was “inactive; no positive results”.
Take `CCC1(c2ccccc2)C(=O)N=C(O)NC1=O` (stereo not given): the Potency (TD50_Mouse_Note: TD50 is harmonic mean of more than one positive test, harmonic mean of TD50 includes a value for upper 99% confidence li, TargetSites_Mouse_Female: liver) is 0.117 mmol/kg/day.
As for `C/C=C/Cl`, under “TargetSites_Mouse_Female: stomach”, the Potency was 0.066 mmol/kg/day.
For the compound `Oc1ccc(Cl)cc1Cc1ccccc1`, the Potency under setting [3] is 6.17 mmol/kg/day.
Regarding `CC(N)Cc1ccccc1` (stereo not given), the outcome under setting [2] is “inactive; no positive results”.
In the case of `CCOc1ccc(NC(C)=O)cc1N`, the Potency under setting [3] was 10.7 mmol/kg/day.
Regarding `CC(=O)Nc1ccc(OCC(O)CNC(C)C)cc1` (stereo not given), the outcome under setting [2] is “inactive; no positive results”.
The same measure, in the same setting: to `CCNc1nc(Cl)nc(NCC)n1` belongs “inactive; no positive results”.
With `CN1C(=O)C(O)N=C(c2ccccc2)c2cc(Cl)ccc21` (stereo not given), the outcome under setting [2] was “inactive; no positive results”.
`COP(=O)(OC)OC=C(Cl)Cl`: the Potency under setting [5] is 0.319 mmol/kg/day.
Consider `COc1cc(N)ccc1N=Nc1ccccc1`, for which the outcome under setting [2] was “inactive; no positive results”.
On the same count and under the same terms, to `Clc1ccc2c(c1)C(c1ccccc1)=NCc1nncn1-2` belongs “inactive; no positive results”; to `OC[C@@H](O)[C@H]1O[C@@H]2O[C@H](C(Cl)(Cl)Cl)O[C@@H]2[C@H]1O`, “inactive; no positive results”.
For the compound `ClCC(Cl)Cl`, where the note is “TD50_Mouse_Note: TD50 is harmonic mean of more than one positive test, TargetSites_Mouse_Female: adrenal gland, liver”, the Potency was 0.412 mmol/kg/day.
`CCCC/C=N/N(C)C=O`: the Potency under setting [6] is 0.0241 mmol/kg/day.
Consider `CCCN(N)C=O`, for which the Potency (TD50_Mouse_Note: TD50 is harmonic mean of more than one positive test, TargetSites_Mouse_Female: gall bladder, liver, lung) is 0.061 mmol/kg/day.
For the compound `CC(=O)Nc1ccc2c(c1)Cc1ccccc1-2`, for the setting “TD50_Mouse_Note: TD50 is harmonic mean of more than one positive test, greater than ten-fold variation among TD50 values for positive res, TargetSites_Mouse_Female: liver, urinary bladder”, the Potency was 0.034 mmol/kg/day.
Consider `ClC(Cl)(Cl)C(Cl)(Cl)Cl`, for which the Potency under setting [1] is 1.43 mmol/kg/day.
With `Nc1ccc(-c2ccc(F)cc2)cc1`, the Potency under setting [1] is 0.00609 mmol/kg/day.
Regarding `O=c1c(O)c(-c2ccc(O)c(O)c2)oc2cc(O)cc(O)c12`, the outcome under setting [2] was “inactive; no positive results”.
On to `C/C=C/C=C/C(=O)O`, for which, under setting [2], the outcome was “inactive; no positive results”.
As for `CNNC`, the Potency (TD50_Mouse_Note: TD50 is harmonic mean of more than one positive test, harmonic mean of TD50 includes a value for upper 99% confidence li, TargetSites_Mouse_Female: lung, vascular system) is 0.000857 mmol/kg/day.
